Experimental data published in patent US10144742B2 (Millennium Pharmaceuticals, Inc., priority 2014, dated 2018).
pIC50: −log10 of the molar value.

Experiments:
hNAMPT protein = hNAMPT protein (Homo sapiens (Human), UniProt P43490); experiment: NAMPT enzyme assay (TR-FRET/HTRF, BodiPY ligand, anti 6His-Tb); type: binding; conditions: for inhibition at 1 µM: NAMPT inhibition at compound concentration 1 μM; for pIC50: NAMPT inhibition, IC50 range class, read-out: IC50
Outline: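 Compound or DMSO was incubated for 1 h at room temperature, protected from light, with BodiPY ligand and hNAMPT labelled by terbium anti-6His antibody. The 520 nm to 486 nm emission ratio after 320 nm excitation gave inhibition versus vehicle, from which concentration-response curves yielded IC50.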

PC3 cells = experiment: PC3 growth inhibition (Cell-titer glo, 72 hours); type: cell-based; conditions: Homo sapiens, PC-3; compound concentration 1.667 μM; PC3 cells, 72 hours, Cell-titer glo; read-out: Percent Inhibition (PC3 growth inhibition)
Outline: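 Compounds in AIM serum-free medium were applied for 72 h at 37 °C, 5% CO2 to PC3 cells plated overnight from RPMI1640 culture. Luminescence after 10 min CellTiter-Glo, normalised to DMSO, gave % viability at 1 μM or 1.667 μM, or GI50/LD50.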

Chain of hNAMPT protein (P43490 whole entry): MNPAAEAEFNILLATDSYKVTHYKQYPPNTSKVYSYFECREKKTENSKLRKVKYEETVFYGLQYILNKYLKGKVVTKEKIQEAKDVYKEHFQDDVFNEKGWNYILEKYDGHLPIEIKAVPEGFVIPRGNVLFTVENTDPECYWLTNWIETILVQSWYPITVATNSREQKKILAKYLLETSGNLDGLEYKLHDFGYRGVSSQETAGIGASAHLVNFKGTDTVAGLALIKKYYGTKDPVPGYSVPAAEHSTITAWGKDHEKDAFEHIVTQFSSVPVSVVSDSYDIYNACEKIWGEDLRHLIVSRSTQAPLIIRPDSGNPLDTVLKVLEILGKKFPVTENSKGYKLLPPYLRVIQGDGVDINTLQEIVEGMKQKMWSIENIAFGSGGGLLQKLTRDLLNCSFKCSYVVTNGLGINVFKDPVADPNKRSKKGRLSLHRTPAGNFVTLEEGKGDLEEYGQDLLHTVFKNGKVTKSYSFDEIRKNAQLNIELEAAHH

| SMILES | inhibition at 1 µM (hNAMPT protein; read-out: Percent Inhibition) | pIC50 (hNAMPT protein) | inhibition at 1.667 µM (PC3 cells) | inhibition at 0.333 µM (hNAMPT protein; NAMPT inhibition at compound concentration 0.333 μM (data at 1 uM not available due to solubility limitations), read-out: Percent Inhibition) |
| --- | --- | --- | --- | --- |
| O=C(NCCCc1ncc[nH]1)c1ccc2nc(-c3ccc(F)cc3)c(-c3ccc4nccn4c3)nc2c1 [Compound I-417, 2-(4-fluorophenyl)-N-[3-(1H-imidazol-2-yl)propyl]-3-(imidazo[1,2-a]pyridin-6-yl)quinoxaline-6-carboxamide] | 81% | 6.30 to 7.00 | 2% |  |
| O=C(NCCCc1ncc[nH]1)c1ccc2nc(-n3cncn3)c(-c3ccc(F)cc3)nc2c1 [Compound I-418] | 60% | 6.00 to 6.30 | 3% |  |
| Nc1ccc(CCCNC(=O)c2ccc3nc(-c4ccc(F)cc4)c(-c4ccc(F)cc4)nc3c2)cn1 [Compound I-419, N-[3-(6-aminopyridin-3-yl)propyl]-2,3-bis(4-fluorophenyl)quinoxaline-6-carboxamide] | 52% | 6.00 to 6.30 | 3% |  |
| O=C(NCCCc1ncc[nH]1)c1ccc2nc(OCCc3ccccc3)c(-c3ccc(F)cc3)nc2c1 [Compound I-420, 3-(4-fluorophenyl)-N-[3-(1H-imidazol-2-yl)propyl]-2-(2-phenylethoxy)quinoxaline-6-carboxamide] | 97% | > 7.00 | 2% |  |
| CC(C)Oc1nc2ccc(C(=O)NCCCc3ncc[nH]3)cc2nc1-c1cccc(SC(F)(F)F)c1 [Compound I-421, N-[3-(1H-imidazol-2-yl)propyl]-2-isopropoxy-3-{3-[(trifluoromethyl)sulfanyl]phenyl}quinoxaline-6-carboxamide] | 78% | 6.30 to 7.00 | 1% |  |
| Cc1cc(-c2nc3cc(C(=O)NCCCc4ncc[nH]4)ccc3nc2-c2ccc(F)cc2)c(C)s1 [Compound I-422, 3-(2,5-dimethyl-3-thienyl)-2-(4-fluorophenyl)-N-[3-(1H-imidazol-2-yl)propyl]quinoxaline-6-carboxamide] | 92% | > 7.00 | 3% |  |
| CN1CCCC(Oc2nc3ccc(C(=O)NCCCc4ncc[nH]4)cc3nc2-c2ccc(F)cc2)C1 (stereo not drawn) [Compound I-423, 3-(4-fluorophenyl)-N-[3-(1H-imidazol-2-yl)propyl]-2-[(1-methylpiperidin-3-yl)oxy]quinoxaline-6-carboxamide] | 88% | 6.30 to 7.00 | 2% |  |
| CC(C)Oc1nc2ccc(C(=O)NCCc3cncn3C)cc2nc1-c1ccc(F)cc1 [Compound I-424, 3-(4-fluorophenyl)-2-isopropoxy-N-[2-(1-methyl-1H-imidazol-5-yl)ethyl]quinoxaline-6-carboxamide] | 76% | 6.30 to 7.00 | 1% |  |
| C#Cc1cccc(-c2nc3cc(C(=O)NCCCc4ncc[nH]4)ccc3nc2-c2ccc(F)cc2)c1 [Compound I-425, 3-(3-ethynylphenyl)-2-(4-fluorophenyl)-N-[3-(1H-imidazol-2-yl)propyl]quinoxaline-6-carboxamide] | 87% | 6.30 to 7.00 | 3% |  |
| COc1cc(-c2nc3cc(C(=O)NCc4ccc5nccn5c4)ccc3nc2OC(C)C)ccc1F [Compound I-426, 3-(4-fluoro-3-methoxyphenyl)-N-(imidazo[1,2-a]pyridin-6-ylmethyl)-2-isopropoxyquinoxaline-6-carboxamide] | 99% | > 7.00 | 0% |  |
| COC1CC(Oc2nc3ccc(C(=O)NCCCc4ncc[nH]4)cc3nc2-c2ccc(F)cc2)C1 (stereo not drawn) [Compound I-427, 3-(4-fluorophenyl)-N-[3-(1H-imidazol-2-yl)propyl]-2-[(3-methoxycyclobutyl)oxy]quinoxaline-6-carboxamide] | 99% | > 7.00 | 2% |  |
| Cc1cc(C)n(-c2nc3ccc(C(=O)NCCCc4ncc[nH]4)cc3nc2-c2ccc(F)cc2)n1 [Compound I-428, 2-(3,5-dimethyl-1H-pyrazol-1-yl)-3-(4-fluorophenyl)-N-[3-(1H-imidazol-2-yl)propyl]quinoxaline-6-carboxamide] | 71% | 6.30 to 7.00 | 2% |  |
| O=C(NCCCc1ncc[nH]1)c1ccc2nc(-c3ccc(F)cc3)c(-c3cn[nH]c3)nc2c1 [Compound I-429, 2-(4-fluorophenyl)-N-[3-(1H-imidazol-2-yl)propyl]-3-(1H-pyrazol-4-yl)quinoxaline-6-carboxamide] | 90% | 6.30 to 7.00 | 76% |  |
| O=C(NCCCc1ncc[nH]1)c1ccc2nc(OC3CCCNC3)c(-c3ccc(F)cc3)nc2c1 (stereo not drawn) [Compound I-430, 3-(4-fluorophenyl)-N-[3-(1H-imidazol-2-yl)propyl]-2-(piperidin-3-yloxy)quinoxaline-6-carboxamide] | 98% | > 7.00 | 3% |  |
| O=C(NCCCc1ncc[nH]1)c1ccc2nc(-c3ccc(F)cc3)c(-c3ccc(Cl)c(F)c3)nc2c1 [Compound I-431, 3-(4-chloro-3-fluorophenyl)-2-(4-fluorophenyl)-N-[3-(1H-imidazol-2-yl)propyl]quinoxaline-6-carboxamide] | 90% | 6.30 to 7.00 | 2% |  |
| O=C(NCCCc1ncc[nH]1)c1ccc2nc(-c3ccc(F)cc3)c(-c3cc(OC(F)(F)F)ccc3Cl)nc2c1 [Compound I-432, 3-[2-chloro-5-(trifluoromethoxy)phenyl]-2-(4-fluorophenyl)-N-[3-(1H-imidazol-2-yl)propyl]quinoxaline-6-carboxamide] | 79% | 6.30 to 7.00 | 2% |  |
| Cc1ccc(-c2nc3cc(C(=O)NCCCc4ncc[nH]4)ccc3nc2-c2ccc(F)cc2)cc1C [Compound I-433, 3-(3,4-dimethylphenyl)-2-(4-fluorophenyl)-N-[3-(1H-imidazol-2-yl)propyl]quinoxaline-6-carboxamide] | 79% | 6.30 to 7.00 | 3% |  |
| O=C(NCCCc1ncc[nH]1)c1ccc2nc(-n3cccn3)c(-c3ccc(F)cc3)nc2c1 [Compound I-434, 3-(4-fluorophenyl)-N-[3-(1H-imidazol-2-yl)propyl]-2-(1H-pyrazol-1-yl)quinoxaline-6-carboxamide] | 76% | 6.30 to 7.00 | 3% |  |
| CC(C)Oc1nc2ccc(C(=O)NCCCc3ncc[nH]3)cc2nc1-c1ccc(F)c(Cl)c1 [Compound I-435, 3-(3-chloro-4-fluorophenyl)-N-[3-(1H-imidazol-2-yl)propyl]-2-isopropoxyquinoxaline-6-carboxamide] | 93% | > 7.00 | 0% |  |
| Nc1ccc(CCCNC(=O)c2ccc3nc(N4CCCCC4)c(-c4ccc(F)cc4)nc3c2)cn1 [Compound I-436, N-[3-(6-aminopyridin-3-yl)propyl]-3-(4-fluorophenyl)-2-(piperidin-1-yl)quinoxaline-6-carboxamide] | 83% | 6.30 to 7.00 | 2% |  |
| CCOc1ccc(Cl)c(-c2nc3cc(C(=O)NCCCc4ncc[nH]4)ccc3nc2-c2ccc(F)cc2)c1 [Compound I-437, 3-(2-chloro-5-ethoxyphenyl)-2-(4-fluorophenyl)-N-[3-(1H-imidazol-2-yl)propyl]quinoxaline-6-carboxamide] | 71% | 6.30 to 7.00 | 3% |  |
| O=C(NCCCc1ncc[nH]1)c1ccc2nc(OCC3CCCO3)c(-c3ccc(F)cc3)nc2c1 (stereo not drawn) [Compound I-438, 3-(4-fluorophenyl)-N-[3-(1H-imidazol-2-yl)propyl]-2-(tetrahydrofuran-2-ylmethoxy)quinoxaline-6-carboxamide] | 99% | > 7.00 | 2% |  |
| O=C(NCCCc1ncc[nH]1)c1ccc2nc(OCc3ccccc3)c(-c3ccc(F)cc3)nc2c1 [Compound I-439, 2-(benzyloxy)-3-(4-fluorophenyl)-N-[3-(1H-imidazol-2-yl)propyl]quinoxaline-6-carboxamide] | 93% | > 7.00 | 3% |  |
| CCOc1nc2ccc(C(=O)NCCCc3ncc[nH]3)cc2nc1-c1ccc(F)cc1 [Compound I-440, 2-ethoxy-3-(4-fluorophenyl)-N-[3-(1H-imidazol-2-yl)propyl]quinoxaline-6-carboxamide] | 94% | > 7.00 | 3% |  |
| O=C(NCCCc1cnccn1)c1ccc2nc(N3CCCCC3)c(-c3ccc(F)cc3)nc2c1 [Compound I-441, 3-(4-fluorophenyl)-2-(piperidin-1-yl)-N-[3-(pyrazin-2-yl)propyl]quinoxaline-6-carboxamide] | 50% | 6.00 to 6.30 | > 99% |  |
| O=C(NCCCc1ncc[nH]1)c1ccc2nc(OCCc3cn[nH]c3)c(-c3ccc(F)cc3)nc2c1 [Compound I-442, 3-(4-fluorophenyl)-N-[3-(1H-imidazol-2-yl)propyl]-2-[2-(1H-pyrazol-4-yl)ethoxy]quinoxaline-6-carboxamide] | > 99% | > 7.00 | 3% |  |
| O=C(NCCc1ncc[nH]1)c1ccc2nc(-c3ccc(F)cc3)c(-c3ccc(Cl)s3)nc2c1 [Compound I-443, N-(2-(1H-imidazol-2-yl)ethyl)-3-(5-chlorothiophen-2-yl)-2-(4-fluorophenyl)quinoxaline-6-carboxamide] |  | 6.30 to 7.00 | 11% | 57% |
